From publication PMC3020970, “K70Q Adds High-Level Tenofovir Resistance to “Q151M Complex” HIV Reverse Transcriptase through the Enhanced Discrimination Mechanism” (PLoS ONE, 2011)
Several values for one entry are separate records, joined by “and”; a condition that tells them apart may be missing. Equal values may be shown once. Read-outs that look alike come from different tables or passages of the source. Marks after values point to notes of the source that are not given here.

Key:
Type in all cases: biochemical
HIV-1 RT WT = target: T1, HIV-1 RT WT (Human immunodeficiency virus type 1 group M subtype B, UniProt P03366); assay: Primer extension assay
T1 construct: made in house; host or cells: Escherichia coli BL21
Procedure: (§1) RT sequences coding for the p66 and p51 subunits of BH10 were cloned in the pRT dual vector, which is derived from pCDF-2 with LIC duet minimal adaptor (Novagen), using restriction sites PpuMI and SacI for the p51 subunit, and SacII and AvrII for the p66 subunit. RT was expressed in the Escherichia coli strain BL21 (Invitrogen) and purified by nickel affinity chromatography and MonoQ anion exchange chromatography. RT concentrations were determined spectrophotometrically based on absorption at […] using a calculated extinction coefficient (261,610 M^−1 cm^−1). The active site concentration of the various RT preparations was calculated as described below.
(§2) DNA oligomers were synthesized by Integrated DNA Technologies (Coralville, IA). An 18-nucleotide DNA primer fluorescently labeled with Cy3 at the 5′ end (P18; 5′-Cy3 GTC CCT GTT CGG GCG CCA-3′) and a 100-nucleotide DNA template (T100; 5′-TAGTGTGTGCCCGTCTGTTGTGTGACTCTGGTAACTAGAGATCCCTCAGACCCTTTTAGTCAGTGTGGAAAATCTCTAGCAGTGGCGCCCGAACAGGGAC-3′) were used in primer extension assays. An 18-nucleotide DNA primer 5′-labeled with Cy3 (P18; 5′-Cy3 GTC ACT GTT CGA GCA CCA-3′) and a 31-nucleotide DNA template (T31; 5′- CCATAGCTAGCATTGGTGCTCGAACAGTGAC-3′) were used in the ATP rescue assay and pre-steady state kinetic experiments.
(§3) The enzyme (20 nM active sites) was incubated with 20 nM template/primer at 37°C in a buffer containing 50 mM Tris-HCl, pH 7.8 and 50 mM NaCl. The DNA synthesis was initiated by the addition of 1 µM dNTP and 10 mM MgCl2. The primer extension assays were carried out in the presence or absence of varying concentrations of TFV-DP. The reactions were terminated after 15 min by adding equal volume of 100% formamide containing traces of bromophenol blue. The extension products were resolved on a 7 M urea-15% polyacrylamide gel, and visualized by phosphor-imaging (FLA 5100, Fujifilm, Tokyo). We followed standard protocols that utilize the Multi Gauge software (Fujifilm) to quantitate primer extension, [44]. The results from dose response experiments were plotted using Prism 4 (GraphPad Software Inc., CA) and IC50 values for TFV-DP were obtained at midpoint concentrations.

HIV-1 RT Q151Mc = target: T2, HIV-1 RT Q151Mc (Human immunodeficiency virus type 1 group M subtype B, UniProt P03366, A661V/F676L/F715Y/Q750M/V674I); assay: Primer extension assay
T2 construct: made in house; host or cells: Escherichia coli BL21
Procedure: as §1, §2, §3

HIV-1 RT K70Q [1] = target: T3, HIV-1 RT K70Q (Human immunodeficiency virus type 1 group M subtype B, UniProt P03366, K669Q); assay: Primer extension assay
T3 construct: made in house; host or cells: Escherichia coli BL21
Procedure: as §1, §2, §3

HIV-1 RT K70Q/Q151Mc = target: T4, HIV-1 RT K70Q/Q151Mc (Human immunodeficiency virus type 1 group M subtype B, UniProt P03366, A661V/F676L/F715Y/K669Q/Q750M/V674I); assay: Primer extension assay
T4 construct: made in house; host or cells: Escherichia coli BL21
Procedure: as §1, §2, §3

HIV-1 RT K70Q [2] = target: T3, HIV-1 RT K70Q; assay: Pre-steady state kinetics of binding and incorporation
Procedure: The reactions were quenched at various times (10 ms to 5 s) by adding EDTA to a final concentration of 50 mM. The amounts of product (P18-dAMP) were quantitated and fit to the following burst equation: [drawing 1] (1) where A is the amplitude of the burst phase that represents the RT-DNA complex at the start of the reaction, k obs is the observed burst rate constant for dNTP incorporation, k ss is the steady state rate constant, and t is the reaction time. The rate constant of the linear phase (kcat) can be estimated by dividing the slope of the linear phase by the enzyme concentration. The active site concentration and template/primer binding affinity (KD-DNA) were determined by plotting the amplitude (A) against the concentration of template/primer. The data were fit using non-linear regression to a quadratic equation: [drawing 2] (2) where KD is the dissociation constant for the RT-DNA complex, and [RT] is the concentration of active polymerase molecules. Subsequent biochemical experiments were performed using corrected active site concentrations, [43].
HIV-1 RT (50 nM active sites) was pre-incubated with 50 nM T31/P18 in one syringe (Syringe A), whereas varying concentrations of dNTP and 10 mM MgCl2 were kept in another syringe (Syringe B). The solutions were rapidly mixed to initiate reactions, which were subsequently quenched at various times (5 ms to 10 s) by adding EDTA to a final concentration of 50 mM. The products from each quenched reaction were resolved, quantitated, and plotted as described above. The data were fit by non-linear regression to the burst equation (Eq 1).
To obtain the dissociation constant KD-dNTP for dNTP binding to the RT-DNA complex, the observed burst rates (kobs) were fit to the hyperbolic equation (Eq. 3) using nonlinear regression: [drawing 3] (3) where kpol is the optimal rate of dNTP incorporation.

[3] = with 3.5 mM ATP, read-out: IC50 of TFV-DP, with ATP
[4] = without ATP, read-out: IC50 of TFV-DP, without ATP

## CC(Cn1cnc2c(N)ncnc21)OCP(=O)(O)OP(=O)(O)OP(=O)(O)O (stereo in doubt) [TFV-DP, tenofovir-diphosphate]
HIV-1 RT WT
  Excision enhancement due to ATP (IC50 with ATP/IC50 without ATP): 2.9 fold
HIV-1 RT WT; [3]
  IC50: 1.85 ± 0.197 µM
HIV-1 RT WT; with ATP
  Fold increase in IC50 vs WT RT, with ATP: (1) ^b fold
HIV-1 RT WT; without ATP
  Fold increase in IC50 vs WT RT, without ATP: (1) ^b fold
HIV-1 RT WT; [4]
  IC50: 0.641 ± 0.083 µM
HIV-1 RT Q151Mc
  Excision enhancement due to ATP (IC50 with ATP/IC50 without ATP): 2.7 fold
HIV-1 RT Q151Mc; [3]
  IC50: 4 ± 0.341 µM
HIV-1 RT Q151Mc; with ATP
  Fold increase in IC50 vs WT RT, with ATP: (2.1) fold
HIV-1 RT Q151Mc; without ATP
  Fold increase in IC50 vs WT RT, without ATP: (2.3) fold
HIV-1 RT Q151Mc; [4]
  IC50: 1.5 ± 0.09 µM
HIV-1 RT K70Q [1]
  Excision enhancement due to ATP (IC50 with ATP/IC50 without ATP): 2.9 fold
HIV-1 RT K70Q [1]; [3]
  IC50: 2.31 ± 0.27 µM
HIV-1 RT K70Q [1]; with ATP
  Fold increase in IC50 vs WT RT, with ATP: (1.2) fold
HIV-1 RT K70Q [1]; without ATP
  Fold increase in IC50 vs WT RT, without ATP: (1.3) fold
HIV-1 RT K70Q [1]; [4]
  IC50: 0.802 ± 0.099 µM
HIV-1 RT K70Q/Q151Mc
  Excision enhancement due to ATP (IC50 with ATP/IC50 without ATP): 2.9 fold
HIV-1 RT K70Q/Q151Mc; [3]
  IC50: 7 ± 0.226 µM
HIV-1 RT K70Q/Q151Mc; with ATP
  Fold increase in IC50 vs WT RT, with ATP: (3.8) fold
HIV-1 RT K70Q/Q151Mc; without ATP
  Fold increase in IC50 vs WT RT, without ATP: (3.7) fold
HIV-1 RT K70Q/Q151Mc; [4]
  IC50: 2.39 ± 0.353 µM
HIV-1 RT K70Q [2]; K70Q RT
  Selectivity (k pol/Kd)dATP/(k pol/Kd)TFV-DP: 6.1
  k pol/Kd: 360000 M⁻¹ s⁻¹ and 360000 ± 80000 M⁻¹ s⁻¹
HIV-1 RT K70Q [2]; K70Q RT vs WT RT
  Reduced affinity for TFV than the WT enzyme: more than 4.5 fold
HIV-1 RT K70Q [2]; K70Q RT, T31/P18, 37°C
  k pol: 3.1 s⁻¹ and 3.1 ± 0.4 s⁻¹
HIV-1 RT K70Q [2]; K70Q RT, binding to RT-DNA complex
  Kd: 8.6 ± 1.5 µM
